According to ChEMBL document CHEMBL6115043, “Novel 5,6-Fused and 6,6-Fused Bicyclic Compounds as 15-Prostaglandin Dehydrogenase Modulators” (ACS Med Chem Lett, 2025):

Key:
[1] = biological target: T1, 15-hydroxyprostaglandin dehydrogenase [NAD(+)] (Homo sapiens, UniProt P15428); experiment: Inhibition of 15-PGDH in human A549 cells assessed as increase in IL-1beta-stimulated PGE2 levels measured after 24 hrs by competitive HTRF assay; type: cell-based
T1 sequence (P15428 whole entry): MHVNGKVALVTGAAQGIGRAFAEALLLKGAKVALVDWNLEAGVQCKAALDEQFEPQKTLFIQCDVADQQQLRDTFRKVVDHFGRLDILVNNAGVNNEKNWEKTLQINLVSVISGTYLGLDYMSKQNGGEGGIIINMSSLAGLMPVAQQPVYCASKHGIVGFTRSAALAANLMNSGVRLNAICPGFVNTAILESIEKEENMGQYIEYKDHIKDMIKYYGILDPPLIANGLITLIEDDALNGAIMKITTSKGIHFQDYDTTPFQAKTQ

[2] = biological target: T1, 15-hydroxyprostaglandin dehydrogenase [NAD(+)]; experiment: Inhibition of recombinant human 15-PGDH using PGE2 and beta-NAD+ as substrate preincubated for 15 mins followed by substrate addition and measured after 60 mins

| IC50 [1] [nM] | IC50 [2] [nM] | SMILES |
| --- | --- | --- |
| 0.05 | – | Cn1cc2cc(-c3ccc4cc([C@]5(O)C[C@@H](C(F)(F)F)C5)sc4n3)cnc2n1 |
| 0.05 | 0.22 | Cn1cc2cc(-c3ccc4nc([C@H](O)C5CC(F)(F)C5)sc4n3)cnc2n1 |
